Where two headings read alike, the source gives them in different places.
What was measured:
[1] = tested on: CYP2B6; conditions: 75 mg dose; ref US FDA; cited from earlier work
[2] = target: CYP2C19 (Homo sapiens, UniProt P33261); conditions: index drug data, healthy volunteers
Method: (§1) This open‐label cross‐over clinical trial included five study phases that each participant underwent in a randomized order (Table 1 ). There was at least 2‐week washout period between different study days.
(§2) On study days, venous blood samples from all participants were drawn from forearm vein cannulas before the administration of the pretreatment drugs and 5 minutes before and 0.5, 1, 1.5, 2, 3, 4, 6, 8, 12, and 23 hours after the administration of the index drugs for determination of index drug and metabolite concentrations. […] Blood glucose levels were monitored with CareSens Dual point‐of‐care blood glucose meter (i‐SENS Inc., Seoul, South Korea) at each venous blood sampling time point up to 12 hours after the administration of index drugs.
(§3) The flow rate was 0.3 mL/min, and the gradient program for the mobile phase B was from 20% to 90% over 7 minutes, wash at 90% 7–9.5 minutes, followed by balancing at 20% before next injection. […] The quality control samples for each analyte at relevant concentrations were quantified with each batch of plasma samples.
(§4) As for biomarkers, AUC0‐3h values in phases I–III and AUC0‐4h values in phases III–V for GCDCA‐3G and GCDCA‐3S and AUC0‐4h values in phases III and V for M430, M444, and solanidine were calculated with trapezoidal rule in Excel (Microsoft, Redmond, WA). […]

[3] = target: T1, CYP2C8 (Homo sapiens, UniProt P10632); experiment: CYP2C8 phenotyping with index drug repaglinide; conditions: repaglinide index drug data, healthy volunteers
T1 sequence (P10632 1-490): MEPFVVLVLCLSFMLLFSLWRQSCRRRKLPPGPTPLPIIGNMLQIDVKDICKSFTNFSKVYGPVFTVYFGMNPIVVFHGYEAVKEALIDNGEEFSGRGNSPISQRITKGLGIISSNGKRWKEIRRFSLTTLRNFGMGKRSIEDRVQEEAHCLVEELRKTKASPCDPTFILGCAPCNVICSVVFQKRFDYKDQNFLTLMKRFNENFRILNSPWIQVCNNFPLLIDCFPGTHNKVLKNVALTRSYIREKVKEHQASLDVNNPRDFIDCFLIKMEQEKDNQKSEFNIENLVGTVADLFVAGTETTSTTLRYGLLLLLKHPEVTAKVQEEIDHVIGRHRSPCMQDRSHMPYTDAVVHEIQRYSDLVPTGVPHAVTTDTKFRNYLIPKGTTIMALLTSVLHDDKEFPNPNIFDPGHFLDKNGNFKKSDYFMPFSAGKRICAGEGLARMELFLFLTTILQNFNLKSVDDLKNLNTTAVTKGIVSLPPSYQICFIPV
Method: as §1, §2
(§5) The limit of quantification for repaglinide was 0.01 ng/mL. […] For GCDCA‐3G and GCDCA‐3S, the limit of quantification was 0.5 ng/mL and the between‐day precisions and accuracies were below 5% and ± 10% at relevant concentrations (10 and 200 ng/mL).
(§6) As for biomarkers, AUC0‐3h values in phases I–III and AUC0‐4h values in phases III–V for GCDCA‐3G and GCDCA‐3S and AUC0‐4h values in phases III and V for M430, M444, and solanidine were calculated with trapezoidal rule in Excel (Microsoft, Redmond, WA). 0‐hour metabolic ratio and AUC0‐4h ratios were calculated for M430/solanidine and M444/solanidine. […]

[4] = Plasma pharmacokinetics of pretreatment drugs clopidogrel, gemfibrozil and their metabolites; format: in vivo; conditions: human, after clopidogrel 300 mg single oral dose (phase IV)
Method: as §1
(§7) On study days, venous blood samples from all participants were drawn from forearm vein cannulas before the administration of the pretreatment drugs and 5 minutes before and 0.5, 1, 1.5, 2, 3, 4, 6, 8, 12, and 23 hours after the administration of the index drugs for determination of index drug and metabolite concentrations. Additional venous blood samples for biomarker analyses were drawn before the administration of the pretreatment drugs and 5 minutes before and 3 hours after the administration of the index drugs. Standardized breakfast was served 1 hour, lunch 3 hours, and snacks 7 and 9 hours after the administration of index drugs. Blood glucose levels were monitored with CareSens Dual point‐of‐care blood glucose meter (i‐SENS Inc., Seoul, South Korea) at each venous blood sampling time point up to 12 hours after the administration of index drugs.
The quality control samples for each analyte at relevant concentrations were quantified with each batch of plasma samples.

[5] = target: T2, OATP1B3 (Homo sapiens, UniProt Q9NPD5); experiment: OATP1B3 endogenous biomarker GCDCA-3S in plasma; conditions: for OATP1B3 inhibition in the trial: GCDCA-3S biomarker data
T2 sequence (Q9NPD5 1-702): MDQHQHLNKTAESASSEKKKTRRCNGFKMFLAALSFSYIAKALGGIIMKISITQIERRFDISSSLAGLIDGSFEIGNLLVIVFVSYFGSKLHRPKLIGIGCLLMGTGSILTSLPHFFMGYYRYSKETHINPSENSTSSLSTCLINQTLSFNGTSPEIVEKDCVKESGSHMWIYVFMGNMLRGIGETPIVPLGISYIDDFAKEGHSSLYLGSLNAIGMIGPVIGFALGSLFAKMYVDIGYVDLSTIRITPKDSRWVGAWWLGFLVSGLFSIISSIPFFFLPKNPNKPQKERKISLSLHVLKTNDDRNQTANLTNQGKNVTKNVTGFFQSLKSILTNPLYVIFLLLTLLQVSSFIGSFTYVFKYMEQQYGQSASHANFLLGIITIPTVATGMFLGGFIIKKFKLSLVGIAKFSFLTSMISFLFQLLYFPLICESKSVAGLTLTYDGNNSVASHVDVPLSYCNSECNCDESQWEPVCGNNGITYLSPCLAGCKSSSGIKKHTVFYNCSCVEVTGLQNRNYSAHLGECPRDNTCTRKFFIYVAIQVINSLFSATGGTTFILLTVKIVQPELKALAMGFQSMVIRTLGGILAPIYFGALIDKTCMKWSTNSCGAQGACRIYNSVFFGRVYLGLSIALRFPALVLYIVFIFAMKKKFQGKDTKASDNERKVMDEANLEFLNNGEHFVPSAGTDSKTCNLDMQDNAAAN
Method: (§8) On study days, venous blood samples from all participants were drawn from forearm vein cannulas before the administration of the pretreatment drugs and 5 minutes before and 0.5, 1, 1.5, 2, 3, 4, 6, 8, 12, and 23 hours after the administration of the index drugs for determination of index drug and metabolite concentrations. Additional venous blood samples for biomarker analyses were drawn before the administration of the pretreatment drugs and 5 minutes before and 3 hours after the administration of the index drugs.
(§9) Plasma repaglinide, OATP1B1 biomarker GCDCA‐3G, OATP1B3 biomarker GCDCA‐3S, and CYP2D6 biomarker solanidine were analyzed using Sciex 5500 Qtrap and Sciex 6500 Qtrap LC–MS systems (AB Sciex, Toronto, ON, Canada) as previously described.[20], [21], [22] The limit of quantification for repaglinide was 0.01 ng/mL. The between‐day precisions (CV%) for quality controls (0.1 and 2.0 ng/mL) were below 10% and accuracies were within ±10%. For GCDCA‐3G and GCDCA‐3S, the limit of quantification was 0.5 ng/mL and the between‐day precisions and accuracies were below 5% and ± 10% at relevant concentrations (10 and 200 ng/mL).
(§10) As for biomarkers, AUC0‐3h values in phases I–III and AUC0‐4h values in phases III–V for GCDCA‐3G and GCDCA‐3S and AUC0‐4h values in phases III and V for M430, M444, and solanidine were calculated with trapezoidal rule in Excel (Microsoft, Redmond, WA).
(§11) Individuals with poor metabolism or transport function phenotype were excluded from respective statistical comparisons. Additionally, to keep comparisons balanced, subjects lacking pharmacokinetic variable data in any study phase were excluded from the respective analyses. Prior to statistical analyses with IBM SPSS Statistics Version 29.0 for Windows (IBM Corporation, Armonk, NY), all pharmacokinetic variable values were logarithmically transformed. Pharmacokinetic variables except T max were compared between different study phases by repeated‐measures analysis of variance with study phase as a within‐subjects factor. T max values were compared with Wilcoxon signed‐rank test. Differences with P < 0.05 after the Bonferroni correction were considered statistically significant. The data are presented as geometrical mean values or geometric mean ratios with geometric CV or 90% confidence intervals (CI) if not otherwise indicated.

[6] = tested on: CYP2B6; conditions: index drug data, healthy volunteers
Method: as §1, §2, §3, §4

[7] = tested on: OATP1B1; experiment: OATP1B1 endogenous biomarker GCDCA-3G in plasma; conditions: for OATP1B1 inhibition in the trial: GCDCA-3G biomarker data
Method: as §8, §9, §10, §11

[8] = tested on: CYP2D6; conditions: in vivo
Method: as §1, §2, §3, §4

[9] = target: T3, CYP1A2 (Homo sapiens, UniProt P05177); experiment: CYP1A2 phenotyping, paraxanthine/caffeine metabolic ratios; format: in vivo; conditions: index drug data, healthy volunteers
T3 sequence (P05177 1-516): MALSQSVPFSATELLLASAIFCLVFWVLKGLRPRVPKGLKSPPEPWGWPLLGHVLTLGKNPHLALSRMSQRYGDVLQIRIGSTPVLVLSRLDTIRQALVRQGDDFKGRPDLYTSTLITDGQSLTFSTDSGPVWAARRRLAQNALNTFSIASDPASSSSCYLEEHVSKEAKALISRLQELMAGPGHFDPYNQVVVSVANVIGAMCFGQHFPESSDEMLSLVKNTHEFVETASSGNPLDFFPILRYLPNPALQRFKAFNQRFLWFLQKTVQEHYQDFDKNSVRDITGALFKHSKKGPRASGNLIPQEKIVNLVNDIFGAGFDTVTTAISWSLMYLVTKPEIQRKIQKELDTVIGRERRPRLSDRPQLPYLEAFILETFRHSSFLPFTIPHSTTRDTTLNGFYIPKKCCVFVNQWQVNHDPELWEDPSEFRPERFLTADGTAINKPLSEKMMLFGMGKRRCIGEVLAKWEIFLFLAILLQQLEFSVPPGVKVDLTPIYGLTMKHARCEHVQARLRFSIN
Method: as §1, §2, §3, §4

[10] = target: T1, CYP2C8; conditions: in vivo
Method: as §1, §2, §5, §6

[11] = tested on: CYP2C9; conditions: index drug data, healthy volunteers
Method: as §1, §2, §3, §4

[12] = Plasma pharmacokinetics of cocktail index drugs and their metabolites, five-phase crossover trial; conditions: phase I: repaglinide 0.05 mg alone;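 further: parameters derived from plasma drug levels quantified by LC–MS with internal standards after acetonitrile protein precipitation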
Method: as §1
(§12) On study days, venous blood samples from all participants were drawn from forearm vein cannulas before the administration of the pretreatment drugs and 5 minutes before and 0.5, 1, 1.5, 2, 3, 4, 6, 8, 12, and 23 hours after the administration of the index drugs for determination of index drug and metabolite concentrations. […] Standardized breakfast was served 1 hour, lunch 3 hours, and snacks 7 and 9 hours after the administration of index drugs.
(§13) Prior to the analysis, the analytes were extracted from the plasma samples with simple protein precipitation. Plasma samples (50 μL) were mixed with acetonitrile solution (200 μL) containing internal standards. The samples were centrifugated and an aliquot of the supernatant was mixed with an equal volume of water before LC–MS analyses.
(§14) The flow rate was 0.3 mL/min, and the gradient program for the mobile phase B was from 20% to 90% over 7 minutes, wash at 90% 7–9.5 minutes, followed by balancing at 20% before next injection. […] The column and mobile phases were the same as above, and the gradient program for the mobile phase B was from 40% to 90% over 5 minutes, wash at 90% 5–7.3 minutes, followed by balancing at 40% before next injection. The quality control samples for each analyte at relevant concentrations were quantified with each batch of plasma samples.
(§15) Individuals with poor metabolism or transport function phenotype were excluded from respective statistical comparisons.

[13] = Safety: adverse effects and blood glucose monitoring; format: in vivo, human
Method: as §7

[14] = clinical; conditions: human, in vivo; for AUC(0-t) / AUC(0-inf) / Cmax: geometric mean (geometric CV); for AUC(0-inf): AUC0-∞; for half-life: t1/2, geometric mean (geometric CV)
Method: as §1, §12, §13, §14, §15

[15] = OATP1B1 normal/decreased function (N = 13), clopidogrel pretreatment
[16] = OATP1B1 normal/decreased function (N = 13), gemfibrozil pretreatment
[17] = OATP1B1 normal/decreased function (N = 13), phase III full cocktail (control)
[18] = OATP1B1 poor function (N = 3), clopidogrel pretreatment
[19] = OATP1B1 poor function (N = 3), gemfibrozil pretreatment
[20] = OATP1B1 poor function (N = 3), phase III full cocktail (control)
[21] = N = 16, clopidogrel pretreatment
[22] = N = 16, gemfibrozil pretreatment
[23] = N = 16, phase III full cocktail (control)
[24] = 0.05 mg, phase I: repaglinide 0.05 mg alone
[25] = phase IV: clopidogrel 300 mg pretreatment + full cocktail
[26] = phase V: gemfibrozil 600 mg b.i.d. 3 days pretreatment + full cocktail

CYP2C19, sequence (P33261 whole entry): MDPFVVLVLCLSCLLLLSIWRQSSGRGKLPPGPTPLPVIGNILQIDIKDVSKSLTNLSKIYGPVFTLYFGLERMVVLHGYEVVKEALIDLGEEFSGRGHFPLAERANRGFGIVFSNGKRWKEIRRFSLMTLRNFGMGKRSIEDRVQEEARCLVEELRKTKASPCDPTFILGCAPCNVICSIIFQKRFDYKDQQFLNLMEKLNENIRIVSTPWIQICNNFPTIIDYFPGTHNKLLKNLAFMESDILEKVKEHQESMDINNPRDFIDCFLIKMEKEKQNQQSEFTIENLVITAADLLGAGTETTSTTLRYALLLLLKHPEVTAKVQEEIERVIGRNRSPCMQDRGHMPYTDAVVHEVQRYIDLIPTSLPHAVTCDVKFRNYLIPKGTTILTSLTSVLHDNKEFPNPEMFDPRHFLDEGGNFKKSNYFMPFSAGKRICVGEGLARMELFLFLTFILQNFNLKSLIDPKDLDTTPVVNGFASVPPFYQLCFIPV

Question: What does the source list for `COC(=O)[C@H](c1ccccc1Cl)N1CCc2sccc2C1` [Clopidogrel, clopidogrel]?
Answer: CYP2B6 inhibitor classification [1]: weak; CYP2C19 inhibition strength in the trial [2]: weak; CYP2C8 inhibition strength in the trial [3]: moderate; Cmax [4]: 3.75 ng/mL; AUC(0-t) ([4]; read-out: AUC0-24h, geometric mean (90% CI)): 11.6 ng·h/mL; OATP1B3 inhibition in the trial [5]: did not affect; CYP2B6 inhibition strength in the trial [6]: moderate; OATP1B1 inhibition in the trial [7]: did not affect

Question: Which “GCDCA-3G AUC0-4h, geometric mean (geometric CV)” value (shortened to “GCDCA-3G AUC0-4h, geometric mean”) [7, 15] does the source give for `C[C@H](CCC(=O)NCC(=O)O)[C@H]1CC[C@H]2[C@@H]3[C@H](O)C[C@@H]4C[C@H](O[C@@H]5O[C@H](C(=O)O)[C@@H](O)[C@H](O)[C@H]5O)CC[C@]4(C)[C@H]3CC[C@]12C` [GCDCA‐3G, glycochenodeoxycholate 3‐O‐glucuronide] here?
Answer: The value was 77.5 (69.9%) ng × h/mL.

Question: And the “GCDCA-3G C0, geometric mean (geometric CV)” value (“GCDCA-3G C0, geometric mean” below) [7, 15]?
Answer: Its value is 21.7 (81.7%) ng/mL.

Question: What about the “GCDCA-3G AUC0-4h, geometric mean” value [7, 16] of the same compound?
Answer: Its value is 118 (65.4%) ng × h/mL.

Question: What about the “GCDCA-3G C0, geometric mean” value [7, 16] of the same compound?
Answer: Its value is 35.7 (82.5%) ng/mL.

Question: And the “GCDCA-3G AUC0-3h, geometric mean (geometric CV)” value (“GCDCA-3G AUC0-3h, geometric mean” for short) [7, 17]?
Answer: The value was 66.3 (49.6%) ng×h/mL.

Question: What about the “GCDCA-3G AUC0-4h, geometric mean” value [7, 17] of the same compound?
Answer: The value was 88.6 (51.3%) ng × h/mL.

Question: What about the “GCDCA-3G C0, geometric mean” value [7, 17] of the same compound?
Answer: The value was 22.9 (60.0%) ng/mL.

Question: And the “GCDCA-3G AUC0-3h, geometric mean” value ([7]; OATP1B1 normal/decreased function (N=13), phase I repaglinide only)?
Answer: Its value is 68.3 (61.0%) ng×h/mL.

Question: And the “GCDCA-3G AUC0-3h, geometric mean” value ([7]; OATP1B1 normal/decreased function (N=13), phase II Geneva cocktail only)?
Answer: Its value is 63.6 (75.2%) ng×h/mL.

Question: And the “GCDCA-3G AUC0-4h, geometric mean” value [7, 18]?
Answer: The value was 791 (56.1%) ng × h/mL.

Question: And the “GCDCA-3G C0, geometric mean” value [7, 18]?
Answer: Its value is 238 (57.2%) ng/mL.

Question: And the “GCDCA-3G AUC0-4h, geometric mean” value [7, 19]?
Answer: Its value is 809 (75.4%) ng × h/mL.

Question: What about the “GCDCA-3G C0, geometric mean” value [7, 19] of the same compound?
Answer: Its value is 215 (79.1%) ng/mL.

Question: And the “GCDCA-3G AUC0-4h, geometric mean” value [7, 20]?
Answer: The value was 755 (48.4%) ng × h/mL.

Question: And the “GCDCA-3G C0, geometric mean” value [7, 20]?
Answer: The value was 206 (73.8%) ng/mL.

Question: Which results are given for `C[C@H](CCC(=O)NCC(=O)O)C1CCC2C3C(CC[C@@]21C)[C@@]1(C)CC[C@@H](OS(=O)(=O)O)C[C@H]1C[C@H]3O` (stereo partly drawn) [GCDCA‐3S, glycochenodeoxycholate 3‐sulfate]?
Answer: GCDCA-3S AUC0-4h, geometric mean (geometric CV) [5, 21]: 146 (61.8%) ng × h/mL; GCDCA-3S C0, geometric mean (geometric CV) [5, 21]: 49.2 (69.3%) ng/mL; GCDCA-3S AUC0-4h, geometric mean (geometric CV) [5, 22]: 212 (46.9%) ng × h/mL; GCDCA-3S C0, geometric mean (geometric CV) [5, 22]: 65.5 (72.9%) ng/mL; GCDCA-3S AUC0-3h, geometric mean (geometric CV) [5, 23]: 141 (68.3%) ng×h/mL; GCDCA-3S AUC0-4h, geometric mean (geometric CV) [5, 23]: 190 (67.4%) ng × h/mL; GCDCA-3S C0, geometric mean (geometric CV) [5, 23]: 50.8 (85.3%) ng/mL; GCDCA-3S AUC0-3h, geometric mean (geometric CV) ([5]; N=16, phase I repaglinide only): 119 (69.0%) ng×h/mL; GCDCA-3S AUC0-3h, geometric mean (geometric CV) ([5]; N=16, phase II Geneva cocktail only): 106 (65.4%) ng×h/mL

Question: Which “CYP2D6 inhibition in the trial” value [8] does the source give for `Cc1ccc(C)c(OCCCC(C)(C)C(=O)O)c1` [Gemfibrozil, gemfibrozil] here?
Answer: The value was “lack of any clinically meaningful”.

Question: And the “CYP1A2 inhibition strength in the trial” value [9]?
Answer: The value was “weak”.

Question: And the “CYP2C8 inhibition strength in the trial” value [10]?
Answer: Its value is “strong”.

Question: What about the “CYP2C9 inhibition in the trial” value [11] of the same compound?
Answer: The value was “lack of any clinically meaningful”.

Question: What about the “OATP1B3 inhibition in the trial” value [5] of the same compound?
Answer: The value was “does not affect”.

Question: What about the “OATP1B1 inhibition in the trial” value [7] of the same compound?
Answer: The value was “slightly inhibits and weak”.

Question: With `CCOc1cc(CC(=O)N[C@@H](CC(C)C)c2ccccc2N2CCCCC2)ccc1C(=O)O` [Repaglinide, repaglinide] as the compound, how does the “Tmax, median (range)” value [12] read?
Answer: The value was 0.5 (0.5-1.0) h.

Question: And the Hypoglycemia ([13]; 0.05 mg repaglinide, breakfast an hour later, also after gemfibrozil pretreatment)?
Answer: The Hypoglycemia was “no hypoglycemia was observed”.

Question: And the “Safety / adverse effects” value ([13]; all study phases, 16 healthy volunteers)?
Answer: Its value is “safe”.

Question: And the AUC(0-t) ([14]; 0.05 mg, AUC0-4h, phase I: repaglinide 0.05 mg alone)?
Answer: The AUC(0-t) was 0.936 ng·h/mL.

Question: What about the AUC(0-t) ([14]; 0.05 mg, AUC0-23h, phase I: repaglinide 0.05 mg alone) of the same compound?
Answer: Its AUC(0-t) is 1.01 ng·h/mL.

Question: And the AUC(0-inf) [14, 24]?
Answer: Its AUC(0-inf) is 1.01 ng·h/mL.

Question: And the Cmax [14, 24]?
Answer: The Cmax was 0.701 ng/mL.

Question: And the half-life [14, 24]?
Answer: Its half-life is 1.07 h.

Question: What about the AUC(0-t) ([14]; AUC0-4h, phase IV: clopidogrel 300 mg pretreatment + full cocktail) of the same compound?
Answer: The AUC(0-t) was 3.7 ng·h/mL.

Question: What about the AUC(0-t) ([14]; AUC0-4h, phase V: gemfibrozil 600 mg b.i.d. 3 days pretreatment + full cocktail) of the same compound?
Answer: Its AUC(0-t) is 4.93 ng·h/mL.

Question: What about the AUC(0-t) ([14]; AUC0-23h, phase IV: clopidogrel 300 mg pretreatment + full cocktail) of the same compound?
Answer: The AUC(0-t) was 5.55 ng·h/mL.

Question: What about the AUC(0-t) ([14]; AUC0-23h, phase V: gemfibrozil 600 mg b.i.d. 3 days pretreatment + full cocktail) of the same compound?
Answer: The AUC(0-t) was 9.21 ng·h/mL.

Question: And the AUC(0-inf) [14, 25]?
Answer: The AUC(0-inf) was 5.65 ng·h/mL.

Question: What about the AUC(0-inf) [14, 26] of the same compound?
Answer: Its AUC(0-inf) is 9.64 ng·h/mL.

Question: And the Cmax [14, 25]?
Answer: Its Cmax is 1.69 ng/mL.

Question: And the Cmax [14, 26]?
Answer: The Cmax was 2.08 ng/mL.

Question: What about the Tmax ([14]; Tmax, median (range), phase IV: clopidogrel 300 mg pretreatment + full cocktail) of the same compound?
Answer: The Tmax was 1 h.

Question: What about the half-life [14, 25] of the same compound?
Answer: Its half-life is 2.78 h.

Question: And the half-life [14, 26]?
Answer: The half-life was 3.35 h.
